# Assay results taken from US20070274947A1, “Antisense Oligonucleotides Directed to Ribonucleotide Reductase R1 and Uses Thereof in the Treatment of Cancer” (priority 2003, published 2007).
# Legend:
# [1] = tested on: DU145 human prostatic cancer cells; assay: DU145 prostate tumor growth in SCID mice; assay type: in vivo
# Experimental: DU145 human prostatic cancer cells (1×10^7 cells in 100 μl of PBS) were subcutaneously injected into the right flank of 6-7 week old male SCID mice. After the size of the tumors reached an approximate volume of 50 mm^3, 13 days post tumor cell injection, SEQ ID NO:1 was administered by bolus infusion into the tail vein every other day at 10 mg/kg. Control animals received saline alone for the same period. Treatments lasted for 30 days thereafter. Antitumor activities were estimated by the inhibition of tumor volume, which was measured with a caliper on nine different occasions over 30-day period. Each point represents mean tumor volume calculated from 5 animals per experimental group.
# In both experiments, DU145 human prostatic cancer cells (1×10^7 cells in 100 μl of PBS) were subcutaneously injected into the right flank of 6-7 weeks old male SCID mice. After the size of tumor reached an approximate volume of 50 mm^3, 13 (upper panel) or 11 (lower panel) days post tumor cell injection, SEQ ID NO:1 was administered by bolus infusion into the tail vein every other day at 10 mg/kg 15 times (upper panel) or 14 times (lower panel), respectively. Control animals received saline alone for the same period. Antitumor effect of SEQ ID NO:1 was further compared to that of mitoxantrone (novantrone®) alone or in combination. Mitoxantrone was administered intravenously once at the beginning of the treatments at a dose of 2 mg/kg (upper panel) or once a week for four weeks at a reduced dose of 0.8 mg/kg (lower panel). All treatments were stopped at day 42 (upper panel) or 38 (lower panel), respectively. A day after the last treatment, tumors were excised from the animals and their weights were measured.
# [2] = tested on: HT-29 human colon cancer cells; assay: HT-29 colon tumor growth in CD-1 nude mice; assay type: in vivo; conditions: SEQ ID NO:1 10 mg/kg every other day
# Experimental: A. HT-29 human colon cancer cells (3×10^6 cells in 100 μl of PBS) were subcutaneously injected into the right flank of 6-7 weeks old female CD-1 nude mice. After the size of tumor reached an approximate volume of 50 mm^3, 4 days post tumor cell injection, SEQ ID NO:1 was administered by bolus infusion into the tail vein every other day at 10 mg/kg. Control animals received saline alone for the same period. Antitumor effect of SEQ ID NO:1 was further compared to that of mitomycin C alone or that of SEQ ID NO:1 in combination with mitomycin C. Mitomycin C was administered intravenously at days 4, 11 and 18 with a dose of 3.5 mg/kg/week, one hour after the treatments with SEQ ID NO:1. All treatments were stopped at day 22. A day after the last treatment, tumors were excised from the animals and their weights were measured (FIG. 13A). […] The delay in tumor growth achieved with SEQ.
# B. HT-29 human colon cancer cells (3×10^6 cells in 100 μl of PBS) were subcutaneously injected into the right flank of 5-6 week old female CD-1 nude mice. After the size of tumor reached an approximate volume of 100 mm^3, 7 days post tumor cell injection, SEQ ID NO:1 was administered by bolus infusion into the tail vein every other day at 10 mg/kg. Control animals received saline alone for the same period. Antitumor effect of SEQ ID NO:1 was further compared to that of CPT-11 alone or that of SEQ ID NO:1 in combination with CPT-11. CPT-11 was administered intraperitoneally for 5 days in a row from day 7-12 with a dose of 20 mg/kg in 100 μl saline. All treatments were stopped at day 32. A day after the last treatment, tumors were excised from the animals and their weights were measured (FIG. 13B).
# [3] = tested on: MDA-CDDP-S4 human in vivo-selected Cisplatin-resistant breast adenocarcinoma cells; assay: Cisplatin-resistant breast adenocarcinoma MDA-CDDP-S4 growth in SCID mice; conditions: SCID mice, fat pad; SEQ ID NO:1 10 mg/kg every other day; Cisplatin 4 mg/kg, Taxol 10 mg/kg i.v. weekly for three weeks
# Experimental: MDA-CDDP-S4 human in vivo-selected Cisplatin-resistant breast adenocarcinoma cells MDA231/CDDPs4) (4×10^6 cells in 100 μl of PBS) were injected into the fat pad (inside of right leg) of 6-7 weeks old female SCID mice. After the size of tumor reached an approximate volume of 100 mm^3, 7-9 days post tumor cell injection, SEQ ID NO:1 was administered by bolus infusion into the tail vein every other day at 10 mg/kg. Control animals received saline alone for the same period. Antitumor effect of SEQ ID NO:1 was further compared to that of Cisplatin or Taxol alone (FIG. 14A) and in combination as indicated in the FIGS. 14B, 14C and 14D. Cisplatin was administered intravenously once a week for three weeks at a dose of 4 mg/kg. Taxol was administered intravenously once a week for three weeks at a dose of 10 mg/kg. Antitumor activities were estimated by the inhibition of tumor volume, which was measured with caliper and each point represents mean tumor volume calculated from 10 animals per experimental group (FIG. 14C). At the end of the study animals were sacrificed, tumor weights taken and mean tumor weights are indicated. […] As expected, treatment with Cisplatin during the same period was ineffective against Cisplatin-resistant tumor.
# [4] = tested on: MDA-MB435-To.1 human Taxol-resistant breast adenocarcinoma cells; assay: Taxol-resistant breast adenocarcinoma MDA-MB435-To.1 growth in SCID mice; assay type: in vivo
# Experimental: MDA-MB435-To.1 human Taxol-resistant breast adenocarcinoma cells (4×10^6 cells in 100 μl of PBS) were injected into the fat pad (inside of right leg) of 6-7 weeks old female SCD mice. After the size of tumor reached an approximate volume of 100 mm^3, 20 days post tumor cell injection, SEQ ID NO:1 was administered by bolus infusion into the tail vein every other day at 10 mg/kg 15 times. Control animals received saline alone for the same period. Antitumor effect of SEQ ID NO:1 was further compared to that of Cisplatin or Taxol alone (FIG. 15A). Cisplatin was administered intravenously once a week for four weeks at a dose of 4 mg/kg. Taxol was administered intravenously once a week for four weeks at a dose of 20 mg/kg. Antitumor activities were estimated by the inhibition of tumor volume, which was measured with caliper (FIG. 15B). Each point represents mean tumor volume calculated from 9-10 animals per experimental group. […] As expected, treatment with Taxol during the same period was ineffective against Taxol-resistant tumor.
# MDA-MB435-To.1 human Taxol-resistant breast adenocarcinoma cells (4×10^6 cells in 100 μl of PBS) were injected into the fat pad (inside of right leg) of 6-7 weeks old female CB-17 SCID mice. After the size of tumor reached an approximate volume of 100 mm^3, 17 days post tumor cell injection, SEQ ID NO:1 was administered by bolus infusion into the tail vein every other day at 10 mg/kg. Control animals received saline alone for the same period. Antitumor effect of SEQ ID NO:1 was compared to that of Cisplatin alone and in combination. Cisplatin was administered intravenously once a week for four weeks at a dose of 4 mg/kg. Antitumor activities were estimated by the inhibition of tumor volume, which was measured with caliper (FIG. 15B). Each point represents mean tumor volume calculated from 10 animals per experimental group. At the end of the study the animals were sacrificed and tumors weighed (FIG. 15C).
# [5] = tested on: Human taxol-resistant promyelocytic leukemia cells (HL-60); assay: Taxol-resistant promyelocytic leukemia (HL-60) growth in SCID mice; assay type: in vivo; conditions: SEQ ID NO:1 10 mg/kg i.v. every other day, taxol 10 mg/kg i.p. once a week
# Experimental: Human taxol-resistant promyelocytic leukemia cells (HL-60) (7×10^6 cells in 100 μl of PBS) were injected into the right flank of 6-7 weeks old female SCID mice. After the size of tumor reached an approximate volume of 100 mm^3, 10 days post tumor cell injection, SEQ ID NO:1 was administered by bolus infusion into the tail vein every other day at 10 mg/kg. Control animals received saline alone for the same period. The anti-tumor effect of SEQ ID NO:1 was further compared to that of taxol. Taxol was administered i.p. once a week at a dose of 10 mg/kg. Anti-tumor activity was estimated by the inhibition of tumor volume, which was measured with caliper (FIG. 17A). Each point represents mean tumor volume calculated from 10 animals per experimental group. In addition animals were sacrificed and tumor weights taken at the end of the study.
# [6] = first experiment, start 20 days post injection, SEQ ID NO:1 10 mg/kg 15 times, Cisplatin 4 mg/kg, Taxol 20 mg/kg weekly for four weeks
compound,measurement,setting,value
"O=C1c2c(O)ccc(O)c2C(=O)c2c(NCCNCCO)ccc(NCCNCCO)c21 [mitoxantrone, reference compound]",tumor weight / tumor growth,"[1]; lower panel FIG. 2, SEQ ID NO:1 10 mg/kg every other day 14 times, mitoxantrone 0.8 mg/kg once a week for four weeks",delay of tumor growth
same,tumor weight / tumor growth,"[1]; upper panel FIG. 2, SEQ ID NO:1 10 mg/kg every other day 15 times, mitoxantrone 2 mg/kg i.v. once, vs saline",inhibitory effects
"CO[C@@]12[C@H](COC(N)=O)C3=C(C(=O)C(C)=C(N)C3=O)N1C[C@@H]1N[C@@H]12 [mitomycin C, reference compound]",tumor weight / tumor growth,"[2]; FIG. 13A, mitomycin C 3.5 mg/kg/week i.v., stopped day 22",inhibitory effects
"CCc1c2c(nc3ccc(OC(=O)N4CCC(N5CCCCC5)CC4)cc13)-c1cc3c(c(=O)n1C2)COC(=O)[C@]3(O)CC [CPT-11, Irinotecan, reference compound]",tumor weight / tumor growth,"[2]; FIG. 13B, CPT-11 20 mg/kg i.p. 5 days, stopped day 32",inhibitory effects
"N.N.[Cl][Pt][Cl] [Cisplatin, reference compound]",tumor weight / tumor growth,[3],ineffective
same,tumor weight / tumor growth,[4]; [6],inhibitory effects
same,tumor weight / tumor growth,"[4]; second experiment, CB-17 SCID mice, start 17 days post injection, SEQ ID NO:1 10 mg/kg every other day, Cisplatin 4 mg/kg weekly",inhibitory effects
"CC(=O)O[C@H]1C(=O)[C@@]2(C)[C@H]([C@H](OC(=O)c3ccccc3)[C@]3(O)C[C@H](OC(=O)[C@H](O)[C@@H](NC(=O)c4ccccc4)c4ccccc4)C(C)=C1C3(C)C)[C@]1(OC(C)=O)CO[C@@H]1C[C@@H]2O [Taxol, Paclitaxel, reference compound]",tumor weight / tumor growth,[3],inhibitory effects
same,tumor weight / tumor growth,[4]; [6],ineffective
same,tumor growth / tumor weight,[5],no effect on tumor growth or weight
